# Assay results from doi:10.1101/2024.09.11.612517v1 (bioRxiv, 2024).
# Square brackets hold non-standard residues; d marks the D form. Peptide text beside a SMILES is read from it.
# Experiments:
# [1] = test system: VEGF-induced retinal vascular permeability; format: in vivo, Wistar rats; conditions: rats, single 0.5% eye drop at different times before intravitreal VEGF
# [2] = Ocular pharmacokinetics after one eye drop, rats; format: in vivo, Wistar rats; conditions: 3 hours post-dose
# [3] = Ocular pharmacokinetics after one eye drop, rabbits; format: in vivo, New Zealand white rabbits
# [4] = NZ rabbits, single eyedrop of 0.5%, mean ± SEM, N = 3 eyes per timepoint, SEM
# [5] = rabbits, single 0.5% eye drop, 24 hours
smiles,measurement,setting,value
CC[C@@H](C)[C@H]1NC(=O)[C@@H]([C@H](C)O)NC(=O)[C@@H](Cc2c[nH]cn2)NC(=O)CNC(=O)[C@@H](CCCNC(=N)N)NC(=O)CNC(=O)[C@@H](Cc2ccccc2)NC1=O [VIAN-c4551] (cyclo([dI][dF]G[dR]G[dH][dT])),Duration of protective effect against VEGF challenge after the eye drop,[1],24 h
same,Concentration in the vitreous (molar),[2],~0.391 µM
same,"AUC0-24h, Retina-Choroid",[3]; [4],"467,434 ± 45,884 hours × ng g^-1"
same,"AUC0-24h, Vitreous",[3]; [4],"1,678 ± 182 hours × ng mL^-1"
same,"Cmax, Retina-Choroid",[3]; [4],"51,693.81 ± 6678.9 ng g^-1"
same,Retina-choroid exposure at 24 hours above IC50,"[3]; rabbits, 24 hours, vs IC50 for endothelial permeability",> 4 orders of magnitude
same,Cmax in retina-choroid (molar),"[3]; rabbits, single 0.5% eye drop",~67 µM
same,Retina/choroid Cmax above IC50 (137.3 pM),"[3]; rabbits, single 0.5% eye drop",5 orders of magnitude
same,Cmax in retina-choroid,"[3]; rabbits, single 0.5% eye drop (50 µL), HUVEC bioactivity read-out",52 µg/g
same,Exposure in retina-choroid after 24 hours,[3]; [5],3.5 µg/g
same,Exposure in retina-choroid after 24 hours (molar),[3]; [5],~4.64 µM
same,Exposure in vitreous after 24 hours,[3]; [5],10.6 ng/mL
same,Exposure in vitreous after 24 hours (molar),[3]; [5],~13.88 nM
same,Time for which high retina-choroid levels lasted,"[3]; rabbits, single topical instillation of 0.5%",24 h
